Strand notation (5' to 3'): a small letter for the sugar, then the base; units joined by * are phosphorothioate-linked, units joined directly phosphodiester-linked; [ ] holds rarer units or linkages, { } end groups; capitals alone tell only the bases. k = constrained ethyl (cEt); [5mC] = 5-methylcytosine; d = 2'-deoxy (DNA)
Tested on: human SMAD7 mRNA
Test: Antisense inhibition of human SMAD7 mRNA expression in Hep3B cells by 3-10-3 cEt gapmers, 10,000 nM, electroporation (Example 2)
Format: cell-based
Conditions: Hep3B cells, electroporation with 10,000 nM antisense oligonucleotide, approximately 24 hours, primer probe set RTS5062, relative to untreated control cells
Outline: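 SMAD7 mRNA was measured by real-time PCR (RTS5062) with RiboGreen total-RNA normalization, about 24 h after 10,000 nM gapmer was delivered by electroporation into Hep3B cells at 20,000 per well. Gapmers were 16-mer 3-10-3 cEt, fully phosphorothioate; values are % inhibition versus untreated controls.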

“799166 (antisense kA*kA*k[5mC]*dA*dG*dT*dG*dT*d[5mC]*dG*dA*dA*dG*kT*kA*kT) [compound 799166]” was tested, and the “% inhibition of SMAD7 mRNA expression” value was 21%.
“799167 (antisense kA*kA*kG*dA*dA*d[5mC]*dA*dG*dT*dG*dT*d[5mC]*dG*kA*kA*kG) [compound 799167]” was tested, and the “% inhibition of SMAD7 mRNA expression” value was 58%.
“799169 (antisense kT*kT*kG*dA*dG*d[5mC]*dT*dA*dA*dG*dA*dA*d[5mC]*kA*kG*kT) [compound 799169]” was tested, and the “% inhibition of SMAD7 mRNA expression” value was 0%.
“799170 (antisense kT*k[5mC]*kA*dT*dT*dG*dA*dG*d[5mC]*dT*dA*dA*dG*kA*kA*k[5mC]) [compound 799170]” was tested, and the “% inhibition of SMAD7 mRNA expression” value was 17%.
“799171 (antisense kT*kG*k[5mC]*dT*d[5mC]*dA*dT*dT*dG*dA*dG*d[5mC]*dT*kA*kA*kG) [compound 799171]” was tested, and the “% inhibition of SMAD7 mRNA expression” value was 30%.
In the case of “799172 (antisense kA*kA*k[5mC]*dA*dT*dG*d[5mC]*dT*d[5mC]*dA*dT*dT*dG*kA*kG*k[5mC]) [compound 799172]”, the “% inhibition of SMAD7 mRNA expression” value was 4%.
For “799173 (antisense k[5mC]*kT*kA*dA*dA*d[5mC]*dA*dT*dG*d[5mC]*dT*d[5mC]*dA*kT*kT*kG) [compound 799173]”, the “% Inhibition” value was 18%.
For “799174 (antisense kA*kG*kT*d[5mC]*dT*dA*dA*dA*d[5mC]*dA*dT*dG*d[5mC]*kT*k[5mC]*kA) [compound 799174]”, the “% Inhibition” value was 42%.
In the case of “799175 (antisense kT*kA*kA*dA*dG*dT*d[5mC]*dT*dA*dA*dA*d[5mC]*dA*kT*kG*k[5mC]) [compound 799175]”, the “% Inhibition” value was 0%.
With “799176 (antisense kT*kG*kT*dT*dA*dA*dA*dG*dT*d[5mC]*dT*dA*dA*kA*k[5mC]*kA) [compound 799176]” the “% Inhibition” value was 0%.
In the case of “799177 (antisense kT*kT*kA*dT*dG*dT*dT*dA*dA*dA*dG*dT*d[5mC]*kT*kA*kA) [compound 799177]”, the “% Inhibition” value was 0%.
With “799178 (antisense kA*kG*k[5mC]*dT*dT*dA*dT*dG*dT*dT*dA*dA*dA*kG*kT*k[5mC]) [compound 799178]” the “% Inhibition” value was 34%.
In the case of “799179 (antisense kA*kA*kT*dA*dG*d[5mC]*dT*dT*dA*dT*dG*dT*dT*kA*kA*kA) [compound 799179]”, the “% Inhibition” value was 0%.
In the case of “799180 (antisense kG*kA*kA*dA*dA*dA*dT*dA*dG*d[5mC]*dT*dT*dA*kT*kG*kT) [compound 799180]”, the “% Inhibition” value was 20%.
In the case of “799181 (antisense kG*kT*kT*dA*dG*dA*dA*dA*dA*dA*dT*dA*dG*k[5mC]*kT*kT) [compound 799181]”, the “% Inhibition” value was 37%.
For “799182 (antisense kG*kT*kA*dG*dT*dT*dA*dG*dA*dA*dA*dA*dA*kT*kA*kG) [compound 799182]”, the “% Inhibition” value was 20%.
In the case of “799183 (antisense k[5mC]*kT*kT*dT*dG*dT*dA*dG*dT*dT*dA*dG*dA*kA*kA*kA) [compound 799183]”, the “% inhibition of SMAD7 mRNA expression” value was 0%.
For “799185 (antisense kT*kT*kA*dA*dA*d[5mC]*d[5mC]*dT*dT*dT*dG*dT*dA*kG*kT*kT) [compound 799185]”, the “% inhibition of SMAD7 mRNA expression” value was 0%.
With “799186 (antisense k[5mC]*kT*kT*dG*dT*dT*d[5mC]*dA*dT*dT*dT*dA*dA*kA*k[5mC]*k[5mC]) [compound 799186]” the “% inhibition of SMAD7 mRNA expression” value was 31%.
In the case of “799187 (antisense k[5mC]*kT*kT*d[5mC]*dT*d[5mC]*dT*dT*dG*dT*dT*d[5mC]*dA*kT*kT*kT) [compound 799187]”, the “% inhibition of SMAD7 mRNA expression” value was 17%.
For “799188 (antisense kT*kG*k[5mC]*dT*dT*d[5mC]*dT*d[5mC]*dT*dT*dG*dT*dT*k[5mC]*kA*kT) [compound 799188]”, the “% inhibition of SMAD7 mRNA expression” value was 43%.
In the case of “799189 (antisense kA*kA*kT*dG*d[5mC]*dT*dT*d[5mC]*dT*d[5mC]*dT*dT*dG*kT*kT*k[5mC]) [compound 799189]”, the “% inhibition of SMAD7 mRNA expression” value was 33%.
With “799190 (antisense kA*kG*kA*dA*dT*dG*d[5mC]*dT*dT*d[5mC]*dT*d[5mC]*dT*kT*kG*kT) [compound 799190]” the “% inhibition of SMAD7 mRNA expression” value was 61%.
